Reference: patent US8852569B2, “Prevention and treatment of itch with cysteine protease inhibition” (The General Hospital Corporation, priority 2008, dated 2014)

Experiments:
human cathepsin K = target: T1, human cathepsin K (Homo sapiens, UniProt P43235); experiment: Chromogenic substrate assay, inhibition of cathepsin K by E64; assay type: biochemical; settings: FIG. 1; protease 0.84 μM, E64 2 μM
T1 construct: made in house; host or cells: E. coli
T1 sequence (P43235 115-329): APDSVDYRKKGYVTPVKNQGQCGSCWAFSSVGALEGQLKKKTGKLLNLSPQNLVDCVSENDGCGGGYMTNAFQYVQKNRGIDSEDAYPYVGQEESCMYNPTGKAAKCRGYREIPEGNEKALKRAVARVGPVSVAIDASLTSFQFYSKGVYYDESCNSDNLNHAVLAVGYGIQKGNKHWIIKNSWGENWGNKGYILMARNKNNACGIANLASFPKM
Description: (§1) The concentrations of all the three proteases are at 0.84 μM and that of E64, a non-selective irreversible inhibitor of cysteine proteases, is at 2 μM […].
(§2) Papain served as a positive control cysteine protease. The cathepsin S and K were further evaluated for their capacity to activate PAR receptors as noted below.

PAR2 = experiment: PAR activation by cytoplasmic calcium release in transfected HeLa cells (Fura-2 ratiometric imaging), PAR2; assay type: cell-based, human; settings: FIG. 3C; cathepsin S 2 μM, E64 10 μM, fura-2 single cell imaging
Description: (§3) The responses to PAR 2 and 4 were blocked by the protease inhibitor E64 (10 μM) as a control). Other controls included vector alone and vector encoding the PAR1 receptor. Cathepsin S was added as indicated. The averages from at least three separate experiments were then combined +/−SD.
(§4) Salmon sperm (SS) DNA is used as control. The averages from at least three separate experiments were then combined +/−SD.
(§5) PAR activation observed by cytoplasmic calcium release—The four human PAR cDNAs were obtained from commercial sources and cloned into the pcDNA3.1(−) vector (INVITROGEN™ Inc.). HeLa cells were transfected with 10 μg of vector cDNA using Lipofectamine 2000 (INVITROGEN™ Inc.) and cultured for two days in 96-well glass bottom plates at 30,000 cells/well. Cells were loaded with Fura-2 as follows. The medium was aspirated and replaced with 100 μl of complete DMEM containing 2 μM Fura-2 (INVITROGEN™ Inc.) and kept at room temperature in the dark for 1 hr. The medium was again aspirated and each well received 90 μl of HEPES buffered saline (20 mM HEPES, 115 mM NaCl, 5.4 mM KCl, 2 mM CaCl2, 0.8 mM MgCl2, 13.8 mM glucose, pH 7.4). Plates were observed using a Zeiss Axiovert 200M microscope equipped with a filter wheel for monitoring excitation at 340 and 380 nm. Axiovision software, version 4.6 was used to analyze ratiometric calcium imaging of the cells. […]

PAR4 = experiment: PAR activation by cytoplasmic calcium release in transfected HeLa cells (Fura-2 ratiometric imaging), PAR4; assay type: cell-based, human; settings: FIG. 3C; cathepsin S 2 μM, E64 10 μM, fura-2 single cell imaging
Description: as §3, §4, §5

human cathepsin S = target: T2, human cathepsin S (Homo sapiens, UniProt P25774); experiment: Chromogenic substrate assay, inhibition of cathepsin S by E64; assay type: biochemical; settings: FIG. 1; protease 0.84 μM, E64 2 μM
T2 construct: made in house; host or cells: E. coli
T2 sequence (P25774 115-331): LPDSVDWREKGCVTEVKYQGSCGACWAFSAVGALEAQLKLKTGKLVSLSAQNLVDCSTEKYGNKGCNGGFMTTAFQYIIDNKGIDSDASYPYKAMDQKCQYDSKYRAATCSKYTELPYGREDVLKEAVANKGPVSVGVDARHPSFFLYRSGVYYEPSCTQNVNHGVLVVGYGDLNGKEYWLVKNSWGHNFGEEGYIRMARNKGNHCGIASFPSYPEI
Description: as §1, §2

SMILES: CC(C)C[C@H](NC(=O)[C@H]1O[C@@H]1C(=O)O)C(=O)NCCCCN=C(N)N (relative stereo) [E64, trans-epoxysuccinyl-L-leucylamide-(4-guanidino) butane, reference compound]
- protease activity of cathepsin K (cleavage of Z-Phe-Arg-pNA) in presence of E64 (human cathepsin K): eliminated
- cathepsin S induced PAR2 response in presence of E64 (PAR2): blocked
- cathepsin S induced PAR4 response in presence of E64 (PAR4): blocked
- protease activity of cathepsin S (cleavage of Z-Phe-Arg-pNA) in presence of E64 (human cathepsin S): eliminated
